The experiment addresses T1, H+/K+ ATPase (Oryctolagus cuniculus, UniProt P27112).
T1 construct: The stomach tissue of the rabbit was separated; from tissue; host or cells: rabbit stomach fundus mucosa, microsomal/Ficoll membrane fraction
In words: Determination of compounds' inhibition of H+/K+ ATPase enzyme activity (malachite green, OD 620 nm). To be noted: enzyme extracted from rabbit stomach mucosa; pH 6.5; 500 μM ATP; 37° C.; read-out: IC50(μM) inhibition rate (IC50) of H+/K+ ATPase enzyme activity. Format: biochemical. From the text: Test Example: Determination of Compounds' Inhibition of H+/K+ ATPase Enzyme Activity
The following experiment is used to determine the inhibitory effect of the compound of the present invention on the H+/K+ ATPase enzyme activity.
• Plate reader: SpectraMax M5(MD) • Malachite Green (Sigma Aldrich, 213020-25G) • Ammonium molybdate (Sigma Aldrich, 277908-20G) • ATP (Sigma Aldrich, A1852-1VL). 2. Buffer Preparation • Enzyme working solution: titrating the enzyme, diluting the enzyme with buffer solution 1, and taking 5 μl of the diluted solution into 50 μl reaction system • ATP solution: 100 mM ATP was diluted to 5 mM with no K+ buffer, and 5 μl of the diluted solution was added to the 50 μl reaction system, that is, the final concentration of ATP was 500 μM MLG color development liquid: 0.12% MLG, 7.5% ammonium molybdate, 11% Tween-20 was mixed as 100:25:2, and adding 15 μl of the mixture into each well during detection. • Buffer 1: 50 mM Tris-HCl pH 6.5, 5 mM magnesium chloride (magnesium chloride), 10 μM valinomycin (valinomycin) • Buffer 2: 50 mM Tris-HCl pH 6.5, 5 mM magnesium chloride (magnesium chloride), 10 μM valinomycin (valinomycin), 20 mM KCl • Homogenization buffer: 10 mmol/L Tris-HCl, pH 6.8, 0.25 M sucrose (sucrose), 1 mmol/LEDTA 7.5% Ficoll layering solution: homogenization buffer+7.5% (W/W) (Ficoll 400). 3. Experimental Steps […] Enzyme Extraction • (1) The stomach tissue of the rabbit was separated, and the blood was washed with tap water, food residue. • (2) The fundus portion was thoroughly washed with pre-cooled NaCl solution to remove surface mucus. • (3) The stripped mucosa was filled into a sample bag or a 50 ml centrifuge tube, and quickly freezing in a liquid nitrogen tank. • (4) The tissue was removed, minced with surgical scissors, and a pre-cooled homogenization buffer (4 ml/g tissue) was added and homogenized in a tissue homogenizer for 2 to 10 minutes. • (5) After homogenization, if there were larger tissue particles, they could be removed by centrifugation (600 g, 10 min), and then the supernatant was transferred to a clean centrifuge tube. After centrifugation at 20000 g for 30 minutes, then the supernatant was transferred to a clean centrifuge tube at 100000 g for 90 minutes, and the precipitate was collected. • (6) Resuspending the precipitate with homogenization buffer, blowing uniformly, adding 7.5% Ficoll layering solution at equal ratio, centrifuging at 100000 g for 90 minutes, and collecting the precipitate. • (7) Resuspending the precipitate with homogenization buffer, blowing uniformly, and the protein concentration was measured by Bradford. Freezing in tubes at −80° C. for later use. 3.2. H+/K+ ATPase Activity Experiment • (1) Adding 35 μl of reaction buffer to each experimental well, and then adding […]. • (2) Adding 5 μl buffer 1 containing 10% DMSO to the whole enzyme and buffer well. • (3) Adding 5 μl of 10× compound working solution to the compound well and mixing well. • (4) Adding 5 μl of buffer 1 to the buffer well. • (5) Adding 5 μl of 10× enzyme working solution to the remaining wells, mixing and incubating at 37° C. for 30 minutes. • (6) Adding 5 μl of 10×ATP working solution to all experimental wells, mixing and incubating at 37° C. for 20 min. • (7) Adding 15 μl MLG chromogenic solution to all experimental wells, and uniformly mixing and incubating at room temperature for 5-30 min. • (8) The reading number of 620 nm was detected by an M5 instrument. 4. Data Analysis
The inhibition rate is calculated with the following formula: Inhibition rate (IC50)=[OD (sample well)−OD (full enzyme well containing potassium chloride)]/[(OD (full enzyme well containing potassium chloride)−(OD (full enzyme well without potassium chloride)]×100% 5. Experimental Results

The structures appear in SMILES notation.

T1 sequence (P27112 whole entry): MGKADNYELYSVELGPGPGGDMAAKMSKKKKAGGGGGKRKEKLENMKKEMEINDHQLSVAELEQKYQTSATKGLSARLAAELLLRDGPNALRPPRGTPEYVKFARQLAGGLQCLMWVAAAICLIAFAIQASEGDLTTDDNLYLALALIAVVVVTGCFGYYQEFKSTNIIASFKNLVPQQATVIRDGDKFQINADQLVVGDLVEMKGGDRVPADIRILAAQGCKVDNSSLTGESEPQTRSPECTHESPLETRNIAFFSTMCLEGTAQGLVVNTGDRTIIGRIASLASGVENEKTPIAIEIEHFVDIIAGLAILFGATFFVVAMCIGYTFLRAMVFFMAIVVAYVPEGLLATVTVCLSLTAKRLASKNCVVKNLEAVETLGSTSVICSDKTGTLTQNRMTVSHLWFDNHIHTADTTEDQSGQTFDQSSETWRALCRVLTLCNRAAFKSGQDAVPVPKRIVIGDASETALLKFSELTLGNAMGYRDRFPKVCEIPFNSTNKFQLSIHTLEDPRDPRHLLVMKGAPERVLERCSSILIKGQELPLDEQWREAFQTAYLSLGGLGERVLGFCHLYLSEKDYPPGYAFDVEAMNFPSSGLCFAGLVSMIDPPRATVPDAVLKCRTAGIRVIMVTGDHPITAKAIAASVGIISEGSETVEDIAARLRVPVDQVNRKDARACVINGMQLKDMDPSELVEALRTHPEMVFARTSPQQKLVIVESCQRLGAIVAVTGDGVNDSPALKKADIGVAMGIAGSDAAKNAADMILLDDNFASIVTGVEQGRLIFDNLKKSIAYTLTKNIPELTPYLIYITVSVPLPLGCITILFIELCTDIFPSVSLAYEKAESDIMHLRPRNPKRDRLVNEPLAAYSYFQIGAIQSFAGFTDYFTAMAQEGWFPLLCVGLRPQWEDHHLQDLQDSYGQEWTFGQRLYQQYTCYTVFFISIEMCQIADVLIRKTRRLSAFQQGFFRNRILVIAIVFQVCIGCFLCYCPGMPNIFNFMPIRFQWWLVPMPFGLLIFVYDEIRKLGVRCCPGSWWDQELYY
T1 sequence (P18597 whole entry partner): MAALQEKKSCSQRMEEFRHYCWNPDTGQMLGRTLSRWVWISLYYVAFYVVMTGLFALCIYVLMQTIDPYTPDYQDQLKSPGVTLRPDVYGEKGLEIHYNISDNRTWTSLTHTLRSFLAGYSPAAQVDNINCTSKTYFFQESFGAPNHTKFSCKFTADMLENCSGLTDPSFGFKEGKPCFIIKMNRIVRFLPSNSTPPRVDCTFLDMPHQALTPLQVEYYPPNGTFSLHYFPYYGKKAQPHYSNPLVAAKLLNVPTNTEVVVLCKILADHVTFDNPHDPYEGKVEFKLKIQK

As for `CN1Cc2nn(Cc3ccc(O)c(C4=CCOCC4)c3)c(-c3ccccc3F)c2C1` [Example 1, 2-(3,6-dihydro-2H-pyran-4-yl)-4-((3-(2-fluorophenyl)-5-methyl-5,6-dihydropyrrolo[3,4-c]pyrazole-2(4H)-yl)methyl)phenol], the IC50 was 0.233 µM.
Then `CN1Cc2nn(Cc3ccc(O)c(C4=CCCOC4)c3)c(-c3ccccc3F)c2C1` [Example 2, 2-(5,6-dihydro-2H-pyran-3-yl)-4-((3-(2-fluorophenyl)-5-methyl-5,6-dihydropyrrolo[3,4-c]pyrazole-2(4H)-yl)methyl)phenol], with 0.0559 µM.
Then `CN1Cc2nn(Cc3cccc(C4=CCCOC4)c3)c(-c3ccccc3F)c2C1` [Example 3, 2-(3-(5,6-dihydro-2H-pyran-3-yl)benzyl)-3-(2-fluorophenyl)-5-methyl-2,4,5,6-tetrahydropyrrolo[3,4-C]pyrazole], with 0.197 µM.
As for `CN1Cc2nn(Cc3cc(O)cc(C4=CCCOC4)c3)c(-c3ccccc3F)c2C1` [Example 4, 3-(5,6-dihydro-2H-pyran-3-yl)-5-((3-(2-fluorophenyl)-5-methyl-5,6-dihydropyrrolo[3,4-c]pyrazole-2(4H)-yl)methyl)phenol], the IC50 is 0.113 µM.
Then `CN1Cc2nn(Cc3cccc(C4=CCOCC4)c3)c(-c3ccccc3F)c2C1` [Example 5, 2-(3-(3,6-dihydro-2H-pyran-4-yl)benzyl)-3-(2-fluorophenyl)-5-methyl-2,4,5,6-Tetrahy dropyrrolo[3,4-C]pyrazole], with 0.0883 µM; and `CN1Cc2nn(Cc3cc(Cl)cc(C4=CCOCC4)c3)c(-c3ccccc3F)c2C1` [Example 6, 2-(3-chloro-5-(3,6-dihydro-2H-pyran-4-yl)benzyl)-3-(2-fluorophenyl)-5-methyl-2,4,5,6-tetrahydropyrrolo[3,4-c]pyrazole], with 0.121 µM.
As to `CN1Cc2nn(Cc3ccc(F)c(C4=CCOCC4)c3)c(-c3ccccc3F)c2C1` [Example 7, 2-(3-(3,6-dihydro-2H-pyran-4-yl)-4-fluorobenzyl)-3-(2-fluorophenyl)-5-methyl-2,4,5,6-tetrahydropyrrolo[3,4-c]pyrazole], the IC50 came to 0.114 µM.
As to `CN1Cc2nn(Cc3cc(O)cc(C4=CCOCC4)c3)c(-c3ccccc3F)c2C1` [Example 8, 3-(3,6-dihydro-2H-pyran-4-yl)-5-((3-(2-fluorophenyl)-5-methyl-5,6-dihydropyrrolo[3,4-c]pyrazole-2(4H)-yl)methyl)phenol], the IC50 turned out to be 0.0811 µM.
For `CN1Cc2nn(Cc3cccc(C4=CCNCC4)c3)c(-c3ccccc3F)c2C1` [Example 9, 3-(2-fluorophenyl)-5-methyl-2-(3-(1,2,3,6-tetrahydropyridin-4-yl)benzyl)-2,4,5,6-tetrahydropyrrolo[3,4-C]pyrazole], the IC50 amounted to 0.208 µM.
Then `CN1Cc2nn(Cc3cccc(C4=CCOCC4)c3)c(-c3cccnc3F)c2C1` [Example 10, 2-(3-(3,6-dihydro-2H-pyran-4-yl)benzyl)-3-(2-fluoropyridin-3-yl)-5-methyl-2,4,5,6-tetrahydropyrrolo[3,4-c]pyrazole], with 0.769 µM.

Source of the values: patent publication US12404276B2, “Substituted pyrrolo[3,4-c]pyrazoles for treating gastric acid-related diseases” (SHANGHAI MEDICILON INC., priority 2019, dated 2025).
